This is an account of results in ChEMBL document CHEMBL3797038, “Synthesis and pharmacological evaluation of new biphenylic derivatives as CB2 receptor ligands” (Eur J Med Chem, 2016).

Activity calls are given as the source filed them. The rule behind the calls is not given here.

In one assay the target is Cannabinoid receptor 1 (Homo sapiens, UniProt P21554). The assay is described as follows: Displacement of [3H]CP55940 from human CB1 receptor expressed in CHO cell membranes after 2 hrs. (In general: Loss of bound radioactivity is the signal in a displacement assay; it reports binding, not function.)
A further assay relates to CHO. Kind of assay: Selectivity index, ratio of Ki for human CB1 receptor expressed in CHO cell membranes to Ki for human CB2 receptor expressed in CHO cell membranes. Type of assay: cell-based.
Assay [1] concerns the target T1, Cannabinoid receptor 2 (Homo sapiens, UniProt P34972). Kind of assay: Displacement of [3H]CP55940 from human CB2 receptor expressed in CHO cell membranes after 2 hrs.
The target in assay [2] is T1, Cannabinoid receptor 2. Kind of assay: Neutral antagonist activity at human CB2 receptor expressed in CHO cell membranes after 90 mins by [35S]GTPgammaS binding assay. Type of assay: functional. In general terms: GTPγS is a poorly hydrolysed GTP analogue; its binding reports G protein activation.
For assay [3], the target named is T1, Cannabinoid receptor 2. The assay is described as follows: Inverse agonist activity at human CB2 receptor expressed in CHO cell membranes after 90 mins by [35S]GTPgammaS binding assay. Type of assay: functional.
Assay [4] has as its target T1, Cannabinoid receptor 2. The assay is described as follows: Agonist activity at human CB2 receptor expressed in CHO cell membranes after 90 mins by [35S]GTPgammaS binding assay. Type of assay: functional.
Assay [5] addresses T1, Cannabinoid receptor 2. Kind of assay: Protean agonist activity at human CB2 receptor expressed in CHO cell membranes after 90 mins by [35S]GTPgammaS binding assay. Type of assay: functional.
For assay [6], the target named is T1, Cannabinoid receptor 2. The assay is described as follows: Neutral antagonist activity at human CB2 receptor expressed in CHO cell membranes up to 10 uM after 90 mins by [35S]GTPgammaS binding assay. Type of assay: functional.
Assay [7] has as its target T1, Cannabinoid receptor 2. Kind of assay: Antagonist activity at human CB2 receptor expressed in CHO cell membranes assessed as inhibition of HU-210 mediated-stimulation at 1 to 10 uM by [35S]GTPgammaS binding assay. Type of assay: functional.
Assay [8] has as its target T1, Cannabinoid receptor 2. The assay is described as follows: Inhibition of N-cycloheptyl-4-methoxy-5-methylbiphenyl-3-carboxamide maximal response at human CB2 receptor expressed in CHO cell membranes by [35S]GTPgammaS binding assay. Type of assay: functional.
In assay [9] the target is T1, Cannabinoid receptor 2. Kind of assay: Competitive antagonist activity at human CB2 receptor expressed in CHO cell membranes assessed as inhibition of N-cycloheptyl-4-methoxy-5-methylbiphenyl-3-carboxamide-mediated receptor stimulation by [35S]GTPgammaS binding assay. Type of assay: functional.

T1 sequence (P34972 whole entry): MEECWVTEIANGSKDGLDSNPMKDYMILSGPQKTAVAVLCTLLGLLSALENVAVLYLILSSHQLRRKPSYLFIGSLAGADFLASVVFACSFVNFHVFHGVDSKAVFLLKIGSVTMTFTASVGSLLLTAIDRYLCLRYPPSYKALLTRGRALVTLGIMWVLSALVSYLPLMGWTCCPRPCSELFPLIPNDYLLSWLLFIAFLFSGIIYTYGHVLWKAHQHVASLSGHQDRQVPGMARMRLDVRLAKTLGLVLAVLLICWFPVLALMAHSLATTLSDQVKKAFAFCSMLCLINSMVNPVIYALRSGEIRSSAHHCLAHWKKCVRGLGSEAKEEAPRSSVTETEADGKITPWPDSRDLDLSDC
Chain of Cannabinoid receptor 1 (P21554 whole entry): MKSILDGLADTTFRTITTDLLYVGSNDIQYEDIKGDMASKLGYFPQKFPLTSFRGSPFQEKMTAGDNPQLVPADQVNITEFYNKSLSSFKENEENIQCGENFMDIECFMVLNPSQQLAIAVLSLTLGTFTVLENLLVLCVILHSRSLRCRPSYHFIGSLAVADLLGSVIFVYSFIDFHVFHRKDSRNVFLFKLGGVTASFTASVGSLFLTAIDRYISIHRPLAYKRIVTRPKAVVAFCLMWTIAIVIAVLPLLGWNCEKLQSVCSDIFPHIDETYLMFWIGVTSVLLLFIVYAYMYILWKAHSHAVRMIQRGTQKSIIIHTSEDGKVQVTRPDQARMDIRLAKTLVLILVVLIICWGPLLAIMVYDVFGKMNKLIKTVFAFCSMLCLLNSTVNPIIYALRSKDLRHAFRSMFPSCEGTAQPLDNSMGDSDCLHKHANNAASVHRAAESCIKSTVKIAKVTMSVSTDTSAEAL

One may read the Ki as the equilibrium dissociation constant of an inhibitor or competing ligand from its target. Read a low Ki as tighter binding. For `CCCCc1cc(-c2ccc(F)cc2)cc(C(=O)N[C@H]2CC[C@H](C)CC2)c1OC`, the Ki at Cannabinoid receptor 1 is at least 10000 nM; at Cannabinoid receptor 2 [1], 1760 nM. In the assay on CHO, the Selectivity Index was above 5.8.
For `CCCCc1cc(-c2ccccc2)cc(C(=O)N[C@H]2CC[C@H](C)CC2)c1OC`, the results for the Ki on Cannabinoid receptor 1 and at Cannabinoid receptor 2 [1] were 3610 nM and 2390 nM, respectively.
On to `C=CCc1ccc(OCCCC)c(-c2ccc(OCCCC)c(CC=C)c2)c1`, for which the affinity on Cannabinoid receptor 2 [1], expressed as Ki, was 1780 nM. Moreover, the Neutral antagonist activity result at Cannabinoid receptor 2 [2] was “Active”.
Take `COc1ccc(-c2cc(Cc3ccc(F)cc3)c(OC)c(C(=O)N[C@H]3CC[C@H](C)CC3)c2)cc1`: the Ki at Cannabinoid receptor 1 is 1170 nM; on Cannabinoid receptor 2 [1] it was 811 nM. In the assay on CHO, the Selectivity Index turned out to be 1.4.
With `C=CCc1ccc(O)c(-c2ccc(OCCCC)c(CC=C)c2)c1`, the results for the Ki at Cannabinoid receptor 1 and at Cannabinoid receptor 2 [1] were 615 nM and 103 nM, respectively. The Neutral antagonist activity entry on Cannabinoid receptor 2 [2] was “Active”.
As to `COc1c(Cc2ccc(F)cc2)cc(-c2ccccc2)cc1C(=O)N[C@H]1CC[C@@H](C)CC1`, the Ki came to 826 nM at Cannabinoid receptor 1 and 1110 nM on Cannabinoid receptor 2 [1]. For the same compound, the Selectivity Index in the assay with CHO amounted to 1.3.
The like results for `CCCCc1cc(-c2ccc(F)cc2)cc(C(=O)N[C@H]2CC[C@@H](C)CC2)c1OC` were, in that order, 2520 nM, 1410 nM and 1.8.
As for `COc1c(Cc2ccccc2)cc(-c2ccccc2)cc1C(=O)NC1CCCCCC1`, the figures for the Ki at Cannabinoid receptor 1 and on Cannabinoid receptor 2 [1] were 1560 nM and 594 nM, respectively. The Selectivity Index with CHO came to 2.6. Besides, the outcome at Cannabinoid receptor 2 [3] was Active.
In the case of `COc1c(C)cc(-c2ccccc2)cc1C(=O)NC1CCCCCC1`, the inhibition constant (Ki) was determined as 656 nM on Cannabinoid receptor 1 and 148 nM at Cannabinoid receptor 2 [1]. The Selectivity Index in the assay on CHO was 4.5. The result at Cannabinoid receptor 2 [4] was Active.
For `COc1ccc(-c2cc(Cc3ccc(F)cc3)c(OC)c(C(=O)NC3CCCCCC3)c2)cc1`, the inhibition constant Ki on Cannabinoid receptor 1 and at Cannabinoid receptor 2 [1] was at least 10000 nM in each case. For the same compound, at Cannabinoid receptor 2 [2], the Neutral antagonist activity entry was “Active”.
Regarding `C=CCc1cc(NC(=O)CCCCCCCCCCC)c(O)c(-c2ccc(OC)c(CC=C)c2)c1`, at Cannabinoid receptor 2 [1], the inhibition constant Ki was above 10000 nM.
For `C=CCc1ccc(OCCCC)c(-c2ccc(O)c(CC=C)c2)c1`, the result on Cannabinoid receptor 2 [5] was Active.
Take `COc1c(Cc2ccc(F)cc2)cc(-c2ccc(F)cc2)cc1C(=O)NC1CCCCCC1`: the Ki on Cannabinoid receptor 1 stood at 2830 nM; on Cannabinoid receptor 2 [1], 265 nM. For the same compound, the Selectivity Index with CHO was found to be 10.7. Further, on Cannabinoid receptor 2 [3], the result was Active.
For the compound `C=CCc1ccc(OC)c(-c2ccc(OC)c(CC=C)c2)c1`, on Cannabinoid receptor 2 [1], the Ki worked out at 1380 nM. In addition, the outcome on Cannabinoid receptor 2 [4] was Active.
With `COc1c(Cc2ccc(F)cc2)cc(-c2ccccc2)cc1C(=O)N[C@H]1CC[C@H](C)CC1`, the Ki on Cannabinoid receptor 1 turned out to be 3090 nM; at Cannabinoid receptor 2 [1], 2620 nM. Also, in the assay with CHO, the Selectivity Index was 1.2.
Compound `C=CCc1cc(NC(=O)CCCCCCCCCCCCCCCCC)c(O)c(-c2ccc(OC)c(CC=C)c2)c1` came in with a Ki on Cannabinoid receptor 2 [1] above 10000 nM.
The compound `C=CCc1cc(NC(C)=O)c(O)c(-c2ccc(OC)c(CC=C)c2)c1` gave an inhibitory constant (Ki) at Cannabinoid receptor 2 [1] above 10000 nM.
Still for that read-out and setting: the result for `COc1c(Cc2ccccc2)cc(-c2ccccc2)cc1C(=O)N[C@H]1CC[C@@H](C)CC1` reads 2670 nM.
On to `COc1c(C)cc(-c2ccc(F)cc2)cc1C(=O)NC1CCCCCC1`, for which the outcome at Cannabinoid receptor 2 [4] was Active.
Consider `COc1c(Cc2ccc(F)cc2)cc(-c2ccc(F)cc2)cc1C(=O)N[C@H]1CC[C@H](C)CC1`, for which the Ki at Cannabinoid receptor 1 worked out at 1850 nM; on Cannabinoid receptor 2 [1], 1090 nM. Further, the Selectivity Index in the assay with CHO amounted to 1.7.
Consider `CCCCc1cc(-c2ccc(F)cc2)cc(C(=O)NC2CCCCCC2)c1OC`, for which the Ki at Cannabinoid receptor 1 is 6110 nM; on Cannabinoid receptor 2 [1] it was 166 nM. Also, the Selectivity Index in the assay with CHO was found to be 36.8. Further, the outcome on Cannabinoid receptor 2 [3] was Active.
As to `C=CCc1ccc(O)c(-c2ccc(O)c(CC=C)c2)c1`, the outcome on Cannabinoid receptor 2 [3] was Active. Also, the Neutral antagonist activity result on Cannabinoid receptor 2 [2] is “Active”.
`C=CCc1ccc(OC)c(-c2ccc(O)c(CC=C)c2)c1`: the outcome at Cannabinoid receptor 2 [4] was Active.
For the compound `COc1c(Cc2ccccc2)cc(-c2ccccc2)cc1C(=O)N[C@H]1CC[C@H](C)CC1`, the inhibitory constant (Ki) at Cannabinoid receptor 1 stood at 2500 nM; at Cannabinoid receptor 2 [1], 4810 nM.
As to `C=CCc1ccc(O)c(-c2ccc(OC)c(CC=C)c2)c1`, on Cannabinoid receptor 2 [4], the result was Active.
In the case of `CCCCc1cc(-c2ccc(OC)cc2)cc(C(=O)NC2CCCCCC2)c1OC`, the inhibition result at Cannabinoid receptor 2 [6] and on Cannabinoid receptor 2 [7] was “Active” each time. Moreover, the inhibition constant Ki on Cannabinoid receptor 2 [1] was 249 nM. Also, on Cannabinoid receptor 2 [2], the Neutral antagonist activity entry was “Active”.
Take `COc1ccc(-c2cc(Cc3ccc(F)cc3)c(OC)c(C(=O)N[C@H]3CC[C@@H](C)CC3)c2)cc1`: the inhibition entry at Cannabinoid receptor 2 [8] was “inactive”. The Ki is 380 nM at Cannabinoid receptor 1 and 196 nM at Cannabinoid receptor 2 [1]. Moreover, the Selectivity Index with CHO turned out to be 2. Also, the inhibition entry at Cannabinoid receptor 2 [9] was “Dose-dependent effect”.
As to `CCCCc1cc(-c2ccccc2)cc(C(=O)N[C@H]2CC[C@@H](C)CC2)c1OC`, the Ki on Cannabinoid receptor 1 was 549 nM; at Cannabinoid receptor 2 [1], 1260 nM.
In the case of `COc1c(Cc2ccc(F)cc2)cc(-c2ccccc2)cc1C(=O)NC1CCCCCC1`, the Ki is 904 nM on Cannabinoid receptor 1 and 84.1 nM at Cannabinoid receptor 2 [1]. The Selectivity Index with CHO was 10.7. At Cannabinoid receptor 2 [3], the result was Active.
The like results for `CCCCc1cc(-c2ccccc2)cc(C(=O)NC2CCCCCC2)c1OC` were, in that order, 1860 nM, 352 nM, 5.3 and “Active”.
For `COc1c(Cc2ccc(F)cc2)cc(-c2ccc(F)cc2)cc1C(=O)N[C@H]1CC[C@@H](C)CC1`, the Ki was 1070 nM on Cannabinoid receptor 1 and 337 nM at Cannabinoid receptor 2 [1]. In addition, the Selectivity Index with CHO came to 3.2.
As to `COc1ccc(-c2cc(C)c(OC)c(C(=O)NC3CCCCCC3)c2)cc1`, the Ki on Cannabinoid receptor 1 was 16500 nM; at Cannabinoid receptor 2 [1], 2740 nM. Also, the Selectivity Index in the assay with CHO is 6.1. At Cannabinoid receptor 2 [2], the Neutral antagonist activity entry is “Active”.
